Assay results as given in US20180214430A1, “Selective Inhibitors Of i-NOS For Use Against Viral Infection” (priority 2015, published 2018).
“Also recorded” adds a separate entry of the source. Read-outs that look alike come from different tables or passages of the source. Marks after values point to notes of the source that are not given here.

Key:
RSV [1] = assay: RSV replication in A549 epithelial cell cultures (number of infected cells, immunofluorescence); format: cell-based, respiratory syncytial virus (A2) Long strain; details: for IC50: read-out: IC50 on RSV replication (concentration needed to give a 50% reduction in number of infected cells/well)
influenza virus = assay: microbe, parasite or virus in culture; format: cell-based, Human influenza virus A/Puerto Rico/8/34 (H1N1)
A549 cells = assay: Cytotoxicity assay (LDH in cell culture supernatant); format: cell-based, human; details: uninfected and RSV infected A549 cells, concentration series
Procedure: To determine the level of cell damage following infection, 50 μl of the culture supernatant from each well were transferred to the corresponding well in 96 well microtitre plate. The LDH activity of the supernatant was measured by a LDH Assay kit, according to the manufacturer's instructions (Sigma, UK). 100 μl of LDH Assay solution was added to each well and the plate was incubated for 30 min at room temperature. After incubation, the absorbance was measured at two wavelengths, 490 nm (measurement) and 690 nm (reference), using a microplate reader (BioRad Laboratories, Hercules, Calif., USA). The percent LDH release was calculated by measuring the LDH content of lysed cells that remained attached to the plate.
To determine whether the concentration series of 1400 W we used was toxic to the A549 cells, and to eliminate the possibility that the reduction in viral antigen was due to toxicity, the concentration of lactate dehydrogenase (LDH) in the cell culture supernatant was measured. LDH is an enzyme that is only released by cells when the cell membrane integrity is reduced. Therefore the concentration of LDH in the cell culture supernatant is directly correlated to cell death.

[2] = system: NO production by RSV infected A549 epithelial cells; assay: Nitric oxide released into cell culture supernatant of RSV infected cells (chemiluminescence); format: cell-based, human; details: for NO production by these cells: epithelial cells, qualitative statement
RSV [3] = assay: Mouse infection model: viral load of the lungs (plaque assay); format: in vivo, balb/c mice; details: 10 mg/kg i.p. every 12 h
total lung NOS activity = assay: Mouse infection model: nitrite concentration of lung homogenate; format: in vivo, balb/c mice; details: 10 mg/kg i.p. every 12 h
[4] = system: respiratory syncytial virus; details: mouse model of respiratory syncytial virus; cited from earlier work
[5] = epithelial cells, qualitative statement
[6] = A549 cells, RPMI (1.15 mM L-Arg), after 24 h, ± 95% CI
[7] = RSV infected mice, day 3, 10 mg/kg
[8] = RSV infected mice, day 3, listed as 1400 W, 10 mg/kg

CC(=O)N[C@H](C(=O)O)C(C)(C)SN=O (racemic) [SNAP, S-nitroso-N-acetylpenicillamine]
viral (RSV) replication (RSV [1]; [5]): did not affect

CC(=N)NCc1cccc(CN)c1 [1400W]
number of RSV-infected cells (RSV [1]; A549 cells, 24 hrs, concentrations above 1 mM): significantly decreased
IC50 (RSV [1]; [6]): 1100 ± 500 µM
viral (RSV) replication (RSV [1]; [5]): strongly inhibited
IC50 (influenza virus; A549 cells, DMEM (0.35 mM L-Arg), after 24 h, ± 95% CI, read-out: IC50 on influenza virus replication (concentration needed to give a 50% reduction in number of infected cells/well)): 3700 ± 1000 µM
IC50 (influenza virus; A549 cells, RPMI (1.15 mM L-Arg), after 24 h, ± 95% CI, read-out: IC50 on influenza virus replication (concentration needed to give a 50% reduction in number of infected cells/well)): 4600 ± 900 µM
toxicity: amount of LDH in the cell culture supernatant (A549 cells): not affected; also recorded: not toxic
amount of NO released into the cell culture supernatant ([2]; RSV infected A549 cells, concentrations above 1 mM): significant decrease
NO production by these cells [2]: reduction
Log10 pfu per gram lung (RSV [3]; Mock infected mice, day 3): <0.18 Log10 pfu per gram lung
Log10 pfu per gram lung (RSV [3]; Mock infected mice, day 5): <0.18 Log10 pfu per gram lung
Log10 pfu per gram lung (RSV [3]; [7]): 0.51 ± 0.17 Log10 pfu per gram lung
Log10 pfu per gram lung (RSV [3]; [8]): significantly lower
Log10 pfu per gram lung (RSV [3]; RSV infected mice, day 5): 1.18 ± 0.92 Log10 pfu per gram lung
Nitrite lung homogenate (total lung NOS activity; Mock infected mice, day 3): 26.0 (5.4) uM
Nitrite lung homogenate (total lung NOS activity; Mock infected mice, day 5): 21.6 (3.0) uM
Nitrite lung homogenate (total lung NOS activity; [7]): 16.7 (1.9)* uM
Nitrite lung homogenate (total lung NOS activity; [8]): significantly reduced
Nitrite lung homogenate (total lung NOS activity; RSV infected mice, day 5): 23.7 (3.3) uM

N=C(N)NCCC[C@H](N)C(=O)O [L-arginine]
IC50 on RSV replication (concentration needed to give a 50% reduction in number of infected cells/well) (RSV [1]; [6]): No inhibitory

COC(=O)[C@@H](N)CCCNC(=N)N[N+](=O)[O-] [L-NAME]
IC50 on RSV replication (concentration needed to give a 50% reduction in number of infected cells/well) (RSV [1]; [6]): No effect
viral (RSV) replication (RSV [1]; [5]): did not inhibit; also recorded: not to inhibit
IC50 on influenza virus replication (concentration needed to give a 50% reduction in number of infected cells/well) (influenza virus; [6]): No effect

NCCCNCCCCN(CCCN)/[N+]([O-])=N/O [Spermine (NONOate)]
viral (RSV) replication (RSV [1]): inhibit
IC50 (RSV [1]): 1500 ± 500 µM
IC50 (influenza virus; read-out: IC50 on influenza virus replication (concentration needed to give a 50% reduction in number of infected cells/well)): 600 ± 400 µM

Cl.N=c1c[n+](N2CCOCC2)[n-]o1 [SIN-1, 3-morpholinosydnonimine hydrochloride]
viral (RSV) replication (RSV [1]; [5]): did not affect

CC1CCN=C(N)S1 (stereo not drawn) [AMT, 2-amino-5,6-dihydro-6-methyl-4H-1,3-thiazine]
viral titres [4]: increase

COc1ccnc(CCc2nc3ncccc3[nH]2)c1 [BYK191023]
viral (RSV) replication (RSV [1]; [5]): strongly inhibited
IC50 (RSV [1]; human respiratory syncytial virus, A549 cells, RPMI (1.15 mM L-Arg), after 24 h, ± 95% CI): 1100 ± 500 µM
IC50 (influenza virus; unidentified influenza virus, A549, 24 h, read-out: IC50 on influenza virus replication (concentration needed to give a 50% reduction in number of infected cells/well), A549 cells, DMEM (0.35 mM L-Arg), after 24 h, ± 95% CI): 4800 ± 400 µM
IC50 (influenza virus; unidentified influenza virus, A549, 24 h, read-out: IC50 on influenza virus replication (concentration needed to give a 50% reduction in number of infected cells/well), A549 cells, RPMI (1.15 mM L-Arg), after 24 h, ± 95% CI): 4300 ± 800 µM
NO production by these cells [2]: reduction
